Structures can show the parent of a compound that is named as a salt.
Key:
[1] = tested on: tobacco mosaic virus (TMV); assay: Anti-TMV in vitro effect (half-leaf soaking); format: cell-based, tobacco mosaic virus (host Nicotiana tabacum L.cv.Xanthi NN)
Alternaria solani = assay: Fungicidal (bactericidal) activity in vitro, PDA colony diameter; format: cell-based; settings: 50 mg/kg
Botrytis cinerea = assay: as above; format: cell-based; settings: 50 mg/kg
cotton bollworms = assay: whole plant or invertebrate; settings: for Cotton bollworm Mortality (%): concentration 600 mg/kg
Procedure: Experimental method of cotton bollworms: feed and drug mixing method: measure 3 mL of prepared solution and add it to about 27 g of newly prepared feed, thereby obtaining needed concentration through dilution by 10 times.

Sclerotinia scleotiorum = assay: Fungicidal (bactericidal) activity in vitro, PDA colony diameter; format: cell-based; settings: 50 mg/kg
[2] = tested on: armyworms, cotton bollworms and corn borers; assay: Insecticidal activity, overall statements on Table 3; format: in vivo; settings: Table 3, 600 mg/kg
Rhizoctonia cereali = assay: Fungicidal (bactericidal) activity in vitro, PDA colony diameter; format: cell-based; settings: 50 mg/kg
[3] = tested on: tobacco mosaic virus (TMV); assay: Anti-TMV in vivo protective effect; parameters: species or system tobacco mosaic virus (host Nicotiana tabacum L.cv.Xanthi NN)
Phytophthora capsici = assay: Fungicidal (bactericidal) activity in vitro, PDA colony diameter; format: cell-based; settings: 50 mg/kg
mosquito larvae = assay: whole plant or invertebrate; settings: for Mosquito larvae Mortality (%): concentration 10 mg/kg
In short: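 Early fourth-instar Culex pipiens pallens larvae from an indoor colony, 10 per beaker, exposed to test compound at 5 ppm in water, diluted from a 1000 ppm acetone mother solution. Blank: water containing 0.5 mL test solvent.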

corn borers [4] = assay: whole plant or invertebrate; settings: read-out: Corn borer Mortality (%)
Macrophoma kawatsukai = assay: Fungicidal (bactericidal) activity in vitro, PDA colony diameter; format: cell-based; settings: 50 mg/kg
Fusarium graminearumt = assay: microbe, parasite or virus in culture; format: cell-based; settings: for Bactericidal activity (%) Fusarium graminearumt: 50 mg/kg
cucumber fusarium wilt = assay: Fungicidal (bactericidal) activity in vitro, PDA colony diameter; format: cell-based; settings: 50 mg/kg
[5] = tested on: tobacco mosaic virus (TMV); assay: Anti-TMV activity, overall statements on Table 1; format: in vivo, tobacco mosaic virus (host Nicotiana tabacum L.cv.Xanthi NN); settings: 100 μg/mL versus ningnanmycin at 100 μg/mL
armyworms = format: in vivo; settings: concentration 600 mg/kg
[6] = tested on: tobacco mosaic virus (TMV); assay: Anti-TMV in vivo inactivation; parameters: species or system tobacco mosaic virus (host Nicotiana tabacum L.cv.Xanthi NN)
Cercospora arachidicola = assay: Fungicidal (bactericidal) activity in vitro, PDA colony diameter; format: cell-based; settings: 50 mg/kg
[7] = tested on: Colletotrichum orbiculare; assay: as above; format: cell-based; settings: 50 mg/kg
Bipolaria maydis = assay: organism not typed; format: cell-based; settings: for Bactericidal activity (%) Bipolaria maydis: 50 mg/kg
potato late blight = assay: microbe, parasite or virus in culture; format: cell-based
Fusarium fujikuroi = assay: Fungicidal (bactericidal) activity in vitro, PDA colony diameter; format: cell-based; settings: 50 mg/kg
Rhizoctonia solani = assay: as above; format: cell-based; settings: 50 mg/kg
[8] = tested on: tobacco mosaic virus (TMV); assay: Anti-TMV in vivo therapeutic effect; parameters: species or system tobacco mosaic virus (host Nicotiana tabacum L.cv.Xanthi NN)
corn borers [9] = settings: concentration 600 mg/kg
14 kinds of fungi = assay: Bactericidal activity, overall statements on Table 2; format: cell-based; settings: Table 2, 50 mg/kg
Excerpt: In vitro test method (Alternaria solani is taken for example. Alternatively, other fungi may be used): Inoculate Alternaria solani to PDA culture medium, culture it for 7 days, prepare […] bacteria plates from colony edge by a puncher, inoculate […] and drug-free PDA culture media, culture them for 4 days, measure colony diameter, compare with the control group and calculate the inhibition percentage of the drug.

[10] = Culex pipiens, 24 h, read-out: Mosquito larvae Mortality (%)

CCOC(=O)[C@@H]1Cc2c([nH]c3ccccc23)[C@H](C)N1 [Ib-13, (1S, 3S)-1-methyl-2,3,4,9-tetrahydropyridino [3,4-b] indol-3-ethyl formate]
inhibition at 100 µg/mL ([1]; Tobacco mosaic virus, treatment dose 100 μg/mL, read-out: Relative inhibition rate (%) In vitro activity): 21.8% | inhibition at 500 µg/mL ([1]; Tobacco mosaic virus, treatment dose 500 μg/mL, read-out: Relative inhibition rate (%) In vitro activity): 46.5% | inhibition of growth at 50 mg/kg (Alternaria solani; Alternaria solani, 96 h): 55.6% | inhibition of growth at 50 mg/kg (Botrytis cinerea; Botrytis cinerea, 96 h): 68.2% | mortality at 600 mg/kg (cotton bollworms; Helicoverpa armigera, in Gossypium hirsutum, read-out: Cotton bollworm Mortality (%)): 30% | inhibition of growth at 50 mg/kg (Sclerotinia scleotiorum; Sclerotinia, 96 h): 68% | activity against armyworms, cotton bollworms and corn borers (in words) [2]: broad-spectrum activity | inhibition of growth at 50 mg/kg (Rhizoctonia cereali; Rhizoctonia, 96 h): 59.4% | inhibition at 100 µg/mL ([3]; Tobacco mosaic virus, treatment dose 100 μg/mL, read-out: Relative inhibition rate (%) In vivo protection): 18.6% | inhibition at 500 µg/mL ([3]; Tobacco mosaic virus, treatment dose 500 μg/mL, read-out: Relative inhibition rate (%) In vivo protection): 47.9% | inhibition of growth at 50 mg/kg (Phytophthora capsici; Phytophthora capsici, 96 h): 60.6% | mortality at 5 mg/kg (mosquito larvae; [10]): 60% | mortality at 10 mg/kg (mosquito larvae; [10]): 100% | activity against culex pipiens larvae (in words) (mosquito larvae; at 5 mg/kg): still show high activity | mortality at 600 mg/kg (corn borers [4]): 55% | inhibition at 50 mg/kg (Macrophoma kawatsukai): 29.4% | inhibition of growth at 50 mg/kg (Fusarium graminearumt; Fusarium, 96 h, read-out: Bactericidal activity (%) Fusarium graminearumt): 21.4% | inhibition of growth at 50 mg/kg (cucumber fusarium wilt; Fusarium, 96 h): 28.6% | anti-TMV activity compared with ningnanmycin [5]: equivalent to the activity of commercial variety ningnanmycin | Armyworm Mortality (%) (armyworms): 60% | inhibition at 100 µg/mL ([6]; Tobacco mosaic virus, treatment dose 100 μg/mL, read-out: Relative inhibition rate (%) In vivo inactivation): 25.7% | inhibition at 500 µg/mL ([6]; Tobacco mosaic virus, treatment dose 500 μg/mL, read-out: Relative inhibition rate (%) In vivo inactivation): 50.4% | inhibition of growth at 50 mg/kg (Cercospora arachidicola; Mycosphaerella arachidis, 96 h): 50% | inhibition of growth at 50 mg/kg ([7]; Colletotrichum orbiculare, 96 h): 38.1% | inhibition at 50 mg/kg (Bipolaria maydis; read-out: Bactericidal activity (%) Bipolaria maydis): 26.3% | inhibition of growth at 50 mg/kg (potato late blight; Phytophthora infestans, 96 h, read-out: Bactericidal activity (%) potato late blight): 30% | inhibition of growth at 50 mg/kg (Fusarium fujikuroi; Fusarium fujikuroi, 96 h): 42.9% | inhibition of growth at 50 mg/kg (Rhizoctonia solani; Rhizoctonia solani, 96 h): 33.9% | inhibition at 100 µg/mL ([8]; Tobacco mosaic virus, treatment dose 100 μg/mL, read-out: Relative inhibition rate (%) In vivo therapy): 17.5% | inhibition at 500 µg/mL ([8]; Tobacco mosaic virus, treatment dose 500 μg/mL, read-out: Relative inhibition rate (%) In vivo therapy): 43.9%

C[C@@H]1N[C@H](C(=O)NN=Cc2ccc(C(C)(C)C)cc2)Cc2c1[nH]c1ccccc21 [Ic-2, (1S, 3S)—N′-(4-tert-butylbenzylidene)-1-methyl-2,3,4,9-tetrahydropyridino [3,4-b] indol-3-formylhydrazine]
Relative inhibition rate (%) In vitro activity ([1]; treatment dose 100 μg/mL): 17.6% | Relative inhibition rate (%) In vitro activity ([1]; treatment dose 500 μg/mL): 52.4% | Bactericidal activity (%) Alternaria solani (Alternaria solani): 70.0% | Bactericidal activity (%) Botrytis cinerea (Botrytis cinerea): 86.4% | Cotton bollworm Mortality (%) (cotton bollworms): 30% | Bactericidal activity (%) Sclerotinia scleotiorum (Sclerotinia scleotiorum): 94.1% | Bactericidal activity (%) Rhizoctonia cereali (Rhizoctonia cereali): 98.0% | Relative inhibition rate (%) In vivo protection ([3]; treatment dose 100 μg/mL): 21.7% | Relative inhibition rate (%) In vivo protection ([3]; treatment dose 500 μg/mL): 53.8% | Bactericidal activity (%) Phytophthora capsici (Phytophthora capsici): 73.7% | Mosquito larvae Mortality (%) (mosquito larvae; 24 h): 20% | Bactericidal activity (%) Macrophoma kawatsukai (Macrophoma kawatsukai): 97.2% | Bactericidal activity (%) Fusarium graminearumt (Fusarium graminearumt): 41.4% | Bactericidal activity (%) Cucumber fusarium wilt (cucumber fusarium wilt): 65.4% | Armyworm Mortality (%) (armyworms): 10% | Relative inhibition rate (%) In vivo inactivation ([6]; treatment dose 100 μg/mL): 13.3% | Relative inhibition rate (%) In vivo inactivation ([6]; treatment dose 500 μg/mL): 50.3% | Bactericidal activity (%) Cercospora arachidicola (Cercospora arachidicola): 82.4% | Bactericidal activity (%) Colletotrichum orbiculare [7]: 77.8% | Corn borer Mortality (%) (corn borers [9]): 5% | Bactericidal activity (%) Bipolaria maydis (Bipolaria maydis): 84.0% | Bactericidal activity (%) potato late blight (potato late blight): 76.0% | Bactericidal activity (%) Fusarium fujikuroi (Fusarium fujikuroi): 57.1% | Bactericidal activity (%) Rhizoctonia solani (Rhizoctonia solani): 88.2% | Relative inhibition rate (%) In vivo therapy ([8]; treatment dose 100 μg/mL): 18.2% | Relative inhibition rate (%) In vivo therapy ([8]; treatment dose 500 μg/mL): 47% | bactericidal activity against fungi (in words) (14 kinds of fungi): very good bactericidal activity against various kinds of fungi

C[C@@H]1N[C@H](C(=O)NN=Cc2ccc(Cl)cc2)Cc2c1[nH]c1ccccc21 [Ic-5, (1S, 3S)—N′-(4-chlorobenzylidene)-1-methyl-2,3,4,9-tetrahydropyridino [3,4-b] indol-3-formylhydrazine]
Relative inhibition rate (%) In vitro activity ([1]; treatment dose 100 μg/mL): 30.8% | Relative inhibition rate (%) In vitro activity ([1]; treatment dose 500 μg/mL): 67.3% | Bactericidal activity (%) Alternaria solani (Alternaria solani): 55.0% | Bactericidal activity (%) Botrytis cinerea (Botrytis cinerea): 59.1% | Cotton bollworm Mortality (%) (cotton bollworms): 25% | Bactericidal activity (%) Sclerotinia scleotiorum (Sclerotinia scleotiorum): 88.2% | Bactericidal activity (%) Rhizoctonia cereali (Rhizoctonia cereali): 94.1% | Relative inhibition rate (%) In vivo protection ([3]; treatment dose 100 μg/mL): 34.1% | Relative inhibition rate (%) In vivo protection ([3]; treatment dose 500 μg/mL): 64.2% | Bactericidal activity (%) Phytophthora capsici (Phytophthora capsici): 81.6% | Mosquito larvae Mortality (%) (mosquito larvae; 24 h): 50% | Bactericidal activity (%) Macrophoma kawatsukai (Macrophoma kawatsukai): 97.2% | Bactericidal activity (%) Fusarium graminearumt (Fusarium graminearumt): 75.9% | Bactericidal activity (%) Cucumber fusarium wilt (cucumber fusarium wilt): 61.5% | Armyworm Mortality (%) (armyworms): 25% | Relative inhibition rate (%) In vivo inactivation ([6]; treatment dose 100 μg/mL): 35.9% | Relative inhibition rate (%) In vivo inactivation ([6]; treatment dose 500 μg/mL): 70.4% | Bactericidal activity (%) Cercospora arachidicola (Cercospora arachidicola): 76.5% | Bactericidal activity (%) Colletotrichum orbiculare [7]: 77.8% | Corn borer Mortality (%) (corn borers [9]): 20% | Bactericidal activity (%) Bipolaria maydis (Bipolaria maydis): 68.0% | Bactericidal activity (%) potato late blight (potato late blight): 80.0% | Bactericidal activity (%) Fusarium fujikuroi (Fusarium fujikuroi): 64.3% | Bactericidal activity (%) Rhizoctonia solani (Rhizoctonia solani): 81.6% | Relative inhibition rate (%) In vivo therapy ([8]; treatment dose 100 μg/mL): 29.2% | Relative inhibition rate (%) In vivo therapy ([8]; treatment dose 500 μg/mL): 71.5% | bactericidal activity against fungi (in words) (14 kinds of fungi): very good bactericidal activity against various kinds of fungi

C[C@@H]1N[C@H](C(=O)NN=Cc2ccc(Cl)c(Cl)c2)Cc2c1[nH]c1ccccc21 [Ic-7, (1S, 3S)—N′-(3,4-dichlorobenzylidene)-1-methyl-2,3,4,9-tetrahydropyridino [3,4-b] indol-3-formylhydrazine]
Relative inhibition rate (%) In vitro activity ([1]; treatment dose 100 μg/mL): 15.1% | Relative inhibition rate (%) In vitro activity ([1]; treatment dose 500 μg/mL): 50.7% | Bactericidal activity (%) Alternaria solani (Alternaria solani): 71.4% | Bactericidal activity (%) Botrytis cinerea (Botrytis cinerea): 80.6% | Cotton bollworm Mortality (%) (cotton bollworms): 30% | Bactericidal activity (%) Sclerotinia scleotiorum (Sclerotinia scleotiorum): 84.6% | Bactericidal activity (%) Rhizoctonia cereali (Rhizoctonia cereali): 97.3% | Relative inhibition rate (%) In vivo protection ([3]; treatment dose 100 μg/mL): 14.8% | Relative inhibition rate (%) In vivo protection ([3]; treatment dose 500 μg/mL): 48.1% | Bactericidal activity (%) Phytophthora capsici (Phytophthora capsici): 84.8% | Mosquito larvae Mortality (%) (mosquito larvae; 24 h): 10% | Bactericidal activity (%) Macrophoma kawatsukai (Macrophoma kawatsukai): 97.0% | Bactericidal activity (%) Fusarium graminearumt (Fusarium graminearumt): 76.9% | Bactericidal activity (%) Cucumber fusarium wilt (cucumber fusarium wilt): 77.3% | Armyworm Mortality (%) (armyworms): 5% | Relative inhibition rate (%) In vivo inactivation ([6]; treatment dose 100 μg/mL): 20.4% | Relative inhibition rate (%) In vivo inactivation ([6]; treatment dose 500 μg/mL): 55.2% | Bactericidal activity (%) Cercospora arachidicola (Cercospora arachidicola): 72.7% | Bactericidal activity (%) Colletotrichum orbiculare [7]: 80.0% | Corn borer Mortality (%) (corn borers [9]): 5% | Bactericidal activity (%) Bipolaria maydis (Bipolaria maydis): 80.0% | Bactericidal activity (%) potato late blight (potato late blight): 65.2% | Bactericidal activity (%) Fusarium fujikuroi (Fusarium fujikuroi): 70.6% | Bactericidal activity (%) Rhizoctonia solani (Rhizoctonia solani): 62.5% | Relative inhibition rate (%) In vivo therapy ([8]; treatment dose 100 μg/mL): 23.5% | Relative inhibition rate (%) In vivo therapy ([8]; treatment dose 500 μg/mL): 48.9% | bactericidal activity against fungi (in words) (14 kinds of fungi): very good bactericidal activity against various kinds of fungi
